Read-outs that look alike come from different tables or passages of the source. Marks after values point to notes of the source that are not given here. Starred links: 1 amine or outer side, 2 acyl side, 3 side chain; linkers in the order of their positions; H or OH if unused. Positions of bridges follow the written chain, without caps; N, C: chain ends. Non-standard residues stand in square brackets, D forms with d. Residues, ends and D or L forms follow the SMILES beside them. ξ: configuration not given here. *: point of attachment. X3 = O=C(C(N[*:1])c1ccc(OC2OC(CO)C(O)C(O)C2OC2OC(CO)C(O)C(O)C2O)cc1)[*:2]; ξPhg(3-Cl-4-OH) = NC(C(=O)O)c1ccc(O)c(Cl)c1; X2 = NC(=O)C(O[*:3])C(N[*:1])C(=O)[*:2]; Hpg = N[CH](C(=O)O)c1ccc(O)cc1; Orn = NCCC[CH](N)C(=O)O; X1 = CC(C)CC=CC=CC(=O)*
Key:
MsmegMurG [1] = biological target: T1, MsmegMurG (Mycolicibacterium smegmatis, UniProt A0R016); experiment: biochemical; design: species or system Mycobacterium smegmatis
MsmegMurG [2] = biological target: T1, MsmegMurG; experiment: biochemical; design: species or system Mycobacterium smegmatis; settings: for inhibition at 10 µM / inhibition at 50 µM / inhibition at 100 µM: read-out: (MsmegMurG) inhibition (%)
HyMurG [3] = biological target: T2, HyMurG (Hydrogenivirga sp. 128-5-R1-1, UniProt A8US35); experiment: UV-Vis-based MurG assay; format: biochemical; settings: for Inhibition of MurG function / lipid II formation: 50–100 μM; for inhibition at 10 µM / inhibition at 50 µM / inhibition at 100 µM: read-out: HthermMurG inhibition (%); for IC50: read-out: IC50 against HyMurG via UV-Vis spectrometry, dose-response curves
MsmegMraY = MsmegMraY (Mycolicibacterium smegmatis, UniProt A0R019); experiment: biochemical; format: biochemical, Mycobacterium smegmatis
[4] = biological target: MurG, P-60 (M. smegmatis) (Mycolicibacterium smegmatis, UniProt A0R016); experiment: Competition reaction of UDP-GlcN-C6-FITC; format: biochemical, Mycobacterium smegmatis
in vitro = settings: African green monkey
HyMraY = experiment: Kinetic studies with HyMraY; format: biochemical, Hydrogenivirga sp.
HyMurG [5] = biological target: T2, HyMurG; experiment: HPLC-based MurG assay, dose-response, HyMurG; format: biochemical; settings: read-out: IC50 HyMurG; HPLC-based method; average of two-three experiments
[6] = tested on: M. smegmatis (ATCC607) and M. tuberculosis (H37Rv); experiment: Antimycobacterial activity, text summary for both species; format: cell-based, Mycobacterium spp.; settings: 50 μg/mL
MurG = biological target: T3, MurG (Mycolicibacterium smegmatis, UniProt A0R016); experiment: MurG kinetic parameters and mode of inhibition, enzyme source not stated; format: biochemical
T3 sequence (A0R016 1-385): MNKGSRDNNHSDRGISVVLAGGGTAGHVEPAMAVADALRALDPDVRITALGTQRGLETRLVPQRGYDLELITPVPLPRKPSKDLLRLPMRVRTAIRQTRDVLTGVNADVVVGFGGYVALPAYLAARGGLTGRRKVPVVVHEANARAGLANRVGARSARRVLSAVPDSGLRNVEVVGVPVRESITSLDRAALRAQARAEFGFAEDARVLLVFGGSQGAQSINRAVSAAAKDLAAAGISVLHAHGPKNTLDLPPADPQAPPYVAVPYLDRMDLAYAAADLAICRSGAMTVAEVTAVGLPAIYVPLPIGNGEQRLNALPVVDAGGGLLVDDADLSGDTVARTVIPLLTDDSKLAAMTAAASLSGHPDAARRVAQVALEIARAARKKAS

[7] = Cytotoxicity against Vero cells; settings: African green monkey
M. smegmatis (ATCC607) = experiment: MIC determination, resazurin, M. smegmatis; format: cell-based, Mycobacterium smegmatis; settings: 7H9 with 0.5% tween 80, 3 days at 37 °C
M. tuberculosis (H37Rv) = experiment: MIC determination, M. tuberculosis; format: cell-based, Mycobacterium tuberculosis; settings: 7H9 containing OADC; 14 days
[8] = substrate: CC(=O)N[C@H]1[C@@H](OP(=O)(O)OP(=O)(O)OC[C@H]2O[C@@H](n3ccc(=O)[nH]c3=O)[C@H](O)[C@@H]2O)O[C@H](CO)[C@@H](O)[C@@H]1O; experiment: Kinetic studies of MurG of M. smegmatis; format: biochemical, Mycobacterium smegmatis; settings: other: apparent Km
[9] = read-out: IC50 MsmegMurG, HPLC-based method, average of two-three experiments
[10] = read-out: IC50 MsmegMraY, HPLC-based method, average of two-three experiments

MsmegMraY, sequence (A0R019 whole entry): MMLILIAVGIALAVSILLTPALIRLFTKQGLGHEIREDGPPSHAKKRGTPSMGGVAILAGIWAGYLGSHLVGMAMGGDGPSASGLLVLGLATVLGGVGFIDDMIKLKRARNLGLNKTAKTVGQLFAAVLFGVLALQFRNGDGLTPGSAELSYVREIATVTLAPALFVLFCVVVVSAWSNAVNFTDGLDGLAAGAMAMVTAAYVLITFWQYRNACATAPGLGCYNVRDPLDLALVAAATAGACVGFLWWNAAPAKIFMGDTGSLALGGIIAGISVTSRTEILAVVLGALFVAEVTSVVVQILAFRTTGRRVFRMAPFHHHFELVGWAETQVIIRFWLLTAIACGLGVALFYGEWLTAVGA
T2 sequence (A8US35 1-350): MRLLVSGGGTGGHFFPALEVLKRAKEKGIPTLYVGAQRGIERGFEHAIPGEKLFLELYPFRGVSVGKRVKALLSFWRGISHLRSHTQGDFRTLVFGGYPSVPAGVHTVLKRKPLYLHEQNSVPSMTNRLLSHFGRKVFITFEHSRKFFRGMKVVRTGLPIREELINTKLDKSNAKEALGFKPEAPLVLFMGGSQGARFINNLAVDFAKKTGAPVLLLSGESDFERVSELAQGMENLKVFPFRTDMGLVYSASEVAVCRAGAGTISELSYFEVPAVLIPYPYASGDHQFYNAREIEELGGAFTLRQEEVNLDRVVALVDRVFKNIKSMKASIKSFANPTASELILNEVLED

Molecule: CO[C@H]1[C@@H](O)[C@H](n2ccc(=O)[nH]c2=O)O[C@@H]1[C@@H](O[C@H]1OC(C(=O)N[C@H]2CCCCNC2=O)=C[C@H](O)[C@@H]1O)C(N)=O [Capuramycin, capuramycin]
- IC50 (MsmegMurG [1]): > 100 µM
- inhibition at 10 µM (MsmegMurG [2]): 0%
- inhibition at 50 µM (MsmegMurG [2]): 0%
- inhibition at 100 µM (MsmegMurG [2]): 0%
- Inhibition of MurG function / lipid II formation (HyMurG [3]): did not inhibit
- inhibition at 10 µM (HyMurG [3]): 0%
- inhibition at 50 µM (HyMurG [3]): 0%
- inhibition at 100 µM (HyMurG [3]): 0%
- IC50 (MsmegMraY): 0.13 µM

Molecule: CC(=O)N[C@H]1[C@@H](OP(=O)(O)OP(=O)(O)OC[C@H]2O[C@@H](n3ccc(=O)[nH]c3=O)[C@H](O)[C@@H]2O)O[C@H](CO)[C@@H](O)[C@@H]1O [UDP-GlcNAc]
- IC50 [4]: 8.4 µM
- UDP-GlcNAc required for 100%-disappearance of 9-C55 ([4]; 8 at 375 μM): > 200 µM

Molecule: CC[C@@H](CO)NCCN[C@@H](CC)CO [Ethambutol]
- IC50 (in vitro): > 100 µg/mL

Molecule: Park’s nucleotide-N^ε-C6-dansylthiourea [Compound 1e]
- kcat of HyMraY for 1e (HyMraY): 0.38 s⁻¹

Molecule: C[C@@H]([C@H](N)C(=O)N[C@H](C(=O)O)[C@H]1O[C@@H](n2ccc(=O)[nH]c2=O)[C@H](O)[C@@H]1O)[C@H](O)c1ccc(O)cn1 [Nikkomycin Z, nikkomycin Z]
- IC50 (in vitro): > 100 µg/mL
- IC50 (HyMurG [5]): 8.7 µM
- Growth inhibition of M. smegmatis and M. tuberculosis [6]: did not inhibit growth
- Mode of MurG inhibition (MurG): competitive inhibitory activity
- IC50 (MsmegMurG [1]): 9.5 µM
- IC50 (MsmegMurG [2]): 9.5 µM
- inhibition at 10 µM (MsmegMurG [2]): 35%
- inhibition at 50 µM (MsmegMurG [2]): 45%
- inhibition at 100 µM (MsmegMurG [2]): 93%
- inhibition at 10 µM (HyMurG [3]): 33%
- inhibition at 50 µM (HyMurG [3]): 50%
- inhibition at 100 µM (HyMurG [3]): 95%
- IC50 (HyMurG [3]): 8.7 µM
- IC50 (MsmegMraY): > 100 µM

Molecule: O=C(NC(=O)c1ccccc1Cl)Nc1ccc(OC(F)(F)F)cc1 [Triflumuron, triflumuron]
- IC50 (HyMurG [5]): > 100 µM
- IC50 (MsmegMurG [1]): > 100 µM
- inhibition at 10 µM (MsmegMurG [2]): 0%
- inhibition at 50 µM (MsmegMurG [2]): 0%
- inhibition at 100 µM (MsmegMurG [2]): 0%
- Inhibition of MurG function / lipid II formation (HyMurG [3]): did not inhibit
- inhibition at 10 µM (HyMurG [3]): 0%
- inhibition at 50 µM (HyMurG [3]): 0%
- inhibition at 100 µM (HyMurG [3]): 0%
- IC50 (MsmegMraY): > 100 µM

Molecule: CC(C)CC=CC=CC(=O)NC(CC(N)=O)C(=O)NC1C(=O)NC(c2ccc(O)cc2)C(=O)NC(CCCN)C(=O)NC(C(C)O)C(=O)NC(c2ccc(O)cc2)C(=O)NC(c2ccc(O)cc2)C(=O)NC(C(C)O)C(=O)NC(Cc2ccccc2)C(=O)NC(CCCN)C(=O)NC(c2ccc(OC3OC(CO)C(O)C(O)C3OC3OC(CO)C(O)C(O)C3O)cc2)C(=O)NC(C(C)O)C(=O)NC(c2ccc(O)cc2)C(=O)NCC(=O)NC(CC(C)C)C(=O)NC(C)C(=O)NC(c2ccc(O)c(Cl)c2)C(=O)OC1C(N)=O (stereo not drawn) [Ramoplanin A2, ramoplanin A2] (X1-N[X2][Hpg][Orn]T[Hpg][Hpg]TF[Orn][X3]T[Hpg]GLA[ξPhg(3-Cl-4-OH)]; ester 2-C; configuration not given here)
- IC50 (HyMurG [5]): 22.4 µM
- IC50 [7]: > 100 µg/mL
- inhibition at 10 µM (MsmegMurG [2]): 0%
- inhibition at 50 µM (MsmegMurG [2]): 100%
- inhibition at 100 µM (MsmegMurG [2]): 100%
- IC50 (HyMurG [3]): 22.4 µM
- IC50 (MsmegMraY): > 100 µM

Molecule: NC(=O)OC[C@H](O)[C@@H](O)[C@H](N)C(=O)N[C@H](C(=O)O)[C@H]1O[C@@H](n2cc(C(=O)O)c(=O)[nH]c2=O)[C@H](O)[C@@H]1O [Polyoxin D, polyoxin D]
- Vero cell cytotoxicity IC50 (Vero cell): >100 µg/mL
- IC50 (HyMurG [5]): 50.8 µM
- Growth inhibition of M. smegmatis and M. tuberculosis [6]: did not inhibit growth
- M. smegmatis (ATCC607) MIC (M. smegmatis (ATCC607)): >50.0 µg/mL
- IC50 (MsmegMurG [1]; [9]): 55 µM
- M. tuberculosis (H37Rv) MIC (M. tuberculosis (H37Rv)): >50.0 µg/mL
- IC50 (MsmegMraY; [10]): > 100 µM

Molecule: CO[C@H]1/C=C/O[C@@]2(C)Oc3c(C)c(O)c4c(O)c(c(/C=N/N5CCN(C)CC5)c(O)c4c3C2=O)NC(=O)/C(C)=C\C=C\[C@H](C)[C@H](O)[C@@H](C)[C@@H](O)[C@@H](C)[C@H](OC(C)=O)[C@@H]1C [Rifampicin]
- IC50 (in vitro): > 100 µg/mL

Molecule: UDP-Glucosamine-C6-FITC [Compound 8]
- Km (MurG; read-out: Km for UDP-GlcN-C6-FITC probe (8), 2e-C55 75 μM): 54 µM

Molecule: NNC(=O)c1ccncc1 [INH]
- Vero cell cytotoxicity IC50 (Vero cell): >100 µg/mL
- M. smegmatis (ATCC607) MIC (M. smegmatis (ATCC607)): 0.78 µg/mL
- M. tuberculosis (H37Rv) MIC (M. tuberculosis (H37Rv)): 0.16 µg/mL

Molecule: CO[C@H]1[C@@H](OC)[C@H](n2ccc(=O)[nH]c2=O)O[C@@H]1[C@@H](O[C@H]1OC(C(=O)N[C@H]2CCCCNC2=O)=C[C@H](O)[C@@H]1O)C(N)=O [O-Methylcapuramycin, O-methylcapuramycin]
- IC50 (HyMurG [5]): > 100 µM
- IC50 (MsmegMurG [1]; [9]): > 100 µM
- Inhibition of MurG function / lipid II formation (HyMurG [3]): did not inhibit
- IC50 (MsmegMraY; [10]): > 100 µM

Molecule: C=C(C/C=C(\C)CCC=C(C)C)CCC(C)(C)/C=C/CC/C(C)=C\CO[C@H](COP(=O)(O)O[C@H]1O[C@H](C(N)=O)[C@@](C)(O)[C@H](OC(N)=O)[C@H]1O[C@@H]1O[C@H](CO[C@@H]2O[C@H](CO)[C@@H](O)[C@H](O)[C@H]2O)[C@@H](O[C@@H]2O[C@H](C)[C@@H](O[C@@H]3O[C@H](C(=O)NC4=C(O)CCC4=O)[C@H](O)[C@H](O)[C@H]3O)[C@H](O)[C@H]2NC(C)=O)[C@H](O)[C@H]1NC(C)=O)C(=O)O [Moenomycin A, moenomycin A]
- IC50 (MsmegMurG [1]): > 100 µM
- inhibition at 10 µM (MsmegMurG [2]): 0%
- inhibition at 50 µM (MsmegMurG [2]): 0%
- inhibition at 100 µM (MsmegMurG [2]): 15%
- Inhibition of MurG function / lipid II formation (HyMurG [3]): did not inhibit
- inhibition at 10 µM (HyMurG [3]): 0%
- inhibition at 50 µM (HyMurG [3]): 0%
- inhibition at 100 µM (HyMurG [3]): 12%
- IC50 (MsmegMraY): > 100 µM

Molecule: CN[C@H](CC(C)C)C(=O)N[C@H]1C(=O)N[C@@H](CC(N)=O)C(=O)N[C@H]2C(=O)N[C@H]3C(=O)N[C@H](C(=O)N[C@H](C(=O)O)c4cc(O)cc(O)c4-c4cc3ccc4O)[C@H](O)c3ccc(c(Cl)c3)Oc3cc2cc(c3O[C@@H]2O[C@H](CO)[C@@H](O)[C@H](O)[C@H]2O[C@H]2C[C@](C)(N)[C@H](O)[C@H](C)O2)Oc2ccc(cc2Cl)[C@H]1O [Vancomycin, vancomycin]
- IC50 [7]: > 100 µg/mL
- inhibition at 10 µM (MsmegMurG [2]): 60%
- inhibition at 50 µM (MsmegMurG [2]): 67%
- inhibition at 100 µM (MsmegMurG [2]): 58%

B1: MurG of M. smegmatis (Mycolicibacterium smegmatis MC2 155) (protein)
chain: MNKGSRDNNHSDRGISVVLAGGGTAGHVEPAMAVADALRALDPDVRITALGTQRGLETRLVPQRGYDLELITPVPLPRKPSKDLLRLPMRVRTAIRQTRDVLTGVNADVVVGFGGYVALPAYLAARGGLTGRRKVPVVVHEANARAGLANRVGARSARRVLSAVPDSGLRNVEVVGVPVRESITSLDRAALRAQARAEFGFAEDARVLLVFGGSQGAQSINRAVSAAAKDLAAAGISVLHAHGPKNTLDLPPADPQAPPYVAVPYLDRMDLAYAAADLAICRSGAMTVAEVTAVGLPAIYVPLPIGNGEQRLNALPVVDAGGGLLVDDADLSGDTVARTVIPLLTDDSKLAAMTAAASLSGHPDAARRVAQVALEIARAARKKAS
- Km ([8]; 2e-C55 37.5 μM): 36 ± 10^b μM
- Km ([8]; 2e-C55 75.0 μM): 37 ± 3.0 µM
